Assays:
[1] = system: chickweed; assay: Test C preemergence/postemergence greenhouse plant response rating 0 to 100; assay type: in vivo, Stellaria media; conditions: PREEMERGENCE; for Plant response rating, Chickweed: 0 to 100 scale
Text: (§1) The compounds evaluated in this test were formulated in a non-phytoxic solvent and applied to the soil surface before plant seedlings emerged (preemergence application), to water that covered the soil surface (flood application), and to plants that were in the one-to-four leaf stage (postemergence application). A sandy loam soil was used for the preemergence and postemergence tests, while a silt loam soil was used in the flood test. Water depth was approximately 2.5 cm for the flood test and was maintained at this level for the duration of the test. Plant species in the preemergence and postemergence tests consisted of barley (Hordeum vulgare), bedstraw (Galium aparine), blackgrass (Alopecurus myosuroides), chickweed (Stellaria media), corn (Zea mays), cotton (Gossypium hirsutum), crabgrass (Digitaria sanguinalis), downy brome (Bromus tectorum), giant foxtail (Setaria faberii), lambsquarters (Chenopodium album), morningglory (Ipomoea hederacea), pigweed ([…]), rape (Brassica napus), ryegrass (Lolium multiflorum), sorghum (Sorghum bicolor), soybean (Glycine max), speedwell (Veronica persica), sugar beet (Beta vulgaris), velvetleaf (Abutilon theophrasti), wheat (Triticum aestivum), wild buckwheat (Polygonum convolvulus), and wild oat (Avena fatua). All plant species were planted one day before application of the compound for the preemergence portion-of this test. Plantings of these species were adjusted to produce plants of appropriate size for the post-emergence portion of the test. […] All plant species were grown using normal greenhouse practices. Visual evaluations of injury expressed on treated plants, when compared to untreated controls, were recorded approximately fourteen to twenty one days after application of the test compound. […] A dash (-) response means no test result.

[2] = system: soybean; assay: as above; assay type: in vivo, Glycine max; conditions: PREEMERGENCE
Text: as §1

[3] = system: giant foxtail; assay: as above; assay type: in vivo, Setaria faberii; conditions: PREEMERGENCE; for Plant response rating, Giant foxtail: 0 to 100 scale
Text: as §1

[4] = system: downy brome; assay: as above; assay type: in vivo, Bromus tectorum; conditions: PREEMERGENCE; for Plant response rating Downy Brome: 0 to 100 scale
Text: as §1

[5] = system: rape; assay: as above; assay type: in vivo, Brassica napus; conditions: PREEMERGENCE; for Plant response rating, Rape: 0 to 100 scale
Text: as §1

[6] = system: barnyardgrass; assay: Test B preemergence/postemergence greenhouse plant response rating 0 to 10; assay type: in vivo, Echinochloa crus-galli; conditions: 0 to 10 scale
Summary of the method: (§2)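 Planted seeds are treated preemergence with compound dissolved in a non-phytotoxic solvent, while postemergence applications go onto plants of two to eighteen cm. Plants stay in the greenhouse twelve to sixteen days and are then rated visually relative to controls.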

[7] = system: lambsquarters; assay: as above; assay type: in vivo, Chenopodium album; conditions: 0 to 10 scale
Summary of the method: as §2

[8] = system: cotton; assay: Test C preemergence/postemergence greenhouse plant response rating 0 to 100; assay type: in vivo, Gossypium hirsutum; conditions: PREEMERGENCE; for Plant response rating, Cotton: 0 to 100 scale
Text: as §1

[9] = system: wild buckwheat; assay: Test B preemergence/postemergence greenhouse plant response rating 0 to 10; assay type: in vivo, Polygonum convolvulus; conditions: 0 to 10 scale
Summary of the method: as §2

[10] = system: crabgrass; assay: as above; assay type: in vivo, Digitaria spp.; conditions: 0 to 10 scale
Summary of the method: as §2

[11] = system: giant foxtail; assay: as above; assay type: in vivo, Setaria faberii; conditions: 0 to 10 scale
Summary of the method: as §2

[12] = system: cocklebur; assay: as above; assay type: in vivo, Xanthium pensylvanicum; conditions: 0 to 10 scale
Summary of the method: as §2

[13] = system: wild oat; assay: Test C preemergence/postemergence greenhouse plant response rating 0 to 100; assay type: in vivo, Avena fatua; conditions: PREEMERGENCE
Text: as §1

[14] = system: wild oat; assay: Test B preemergence/postemergence greenhouse plant response rating 0 to 10; assay type: in vivo, Avena fatua; conditions: 0 to 10 scale
Summary of the method: as §2

[15] = system: purple nutsedge; assay: as above; assay type: in vivo, Cyperus rotundus; conditions: 0 to 10 scale
Summary of the method: as §2

CCCN1C(=O)COc2cc(F)c(-c3nn4c(c3Br)CCCC4)cc21 [Compound 63]
Plant response rating, Chickweed ([1]; 62 g/ha): 30
Plant response rating, Chickweed ([1]; 250 g/ha): 50
Plant response rating (0 to 100), Chickweed ([1]; Rate 4 g/ha): 10
Plant response rating (0 to 100), Chickweed ([1]; Rate 16 g/ha): 20
Plant response rating, Soybean ([2]; 250 g/ha, 0 to 100 scale): 20
Plant response rating (0 to 100), Soybean ([2]; Rate 4 g/ha): 0
Plant response rating (0 to 100), Soybean ([2]; Rate 16 g/ha): 0
Plant response rating, Giant foxtail ([3]; 62 g/ha): 20
Plant response rating, Giant foxtail ([3]; 250 g/ha): 75
Plant response rating (0 to 100), Giant foxtail ([3]; Rate 4 g/ha): 0
Plant response rating (0 to 100), Giant foxtail ([3]; Rate 16 g/ha): 0
Plant response rating Downy Brome ([4]; 62 g/ha): 20
Plant response rating Downy Brome ([4]; 250 g/ha): 50
Plant response rating (0 to 100), Downy Brome ([4]; Rate 4 g/ha): 0
Plant response rating (0 to 100), Downy Brome ([4]; Rate 16 g/ha): 0
Plant response rating, Rape ([5]; 62 g/ha): 85
Plant response rating, Rape ([5]; 250 g/ha): 100
Plant response rating (0 to 100), Rape ([5]; Rate 4 g/ha): 0
Plant response rating (0 to 100), Rape ([5]; Rate 16 g/ha): 20
Plant response rating, Barnyardgrass ([6]; POSTEMERGENCE, Rate 10 g/ha): 3
Plant response rating, Barnyardgrass ([6]; POSTEMERGENCE, Rate 50 g/ha): 5
Plant response rating, Barnyardgrass ([6]; PREEMERGENCE, Rate 10 g/ha): 0
Plant response rating, Barnyardgrass ([6]; PREEMERGENCE, Rate 50 g/ha): 0
Plant response rating, Lambsquarter ([7]; POSTEMERGENCE, Rate 10 g/ha): 9
Plant response rating, Lambsquarter ([7]; POSTEMERGENCE, Rate 50 g/ha): 10
Plant response rating, Lambsquarter ([7]; PREEMERGENCE, Rate 50 g/ha): 10
Plant response rating, Cotton ([8]; 62 g/ha): 20
Plant response rating, Cotton ([8]; 250 g/ha): 70
Plant response rating (0 to 100), Cotton ([8]; Rate 4 g/ha): 0
Plant response rating (0 to 100), Cotton ([8]; Rate 16 g/ha): 0
Plant response rating, Wild buckwheat ([9]; POSTEMERGENCE, Rate 10 g/ha): 9
Plant response rating, Wild buckwheat ([9]; POSTEMERGENCE, Rate 50 g/ha): 10
Plant response rating, Wild buckwheat ([9]; PREEMERGENCE, Rate 50 g/ha): 10
Plant response rating, Crabgrass ([10]; POSTEMERGENCE, Rate 10 g/ha): 3
Plant response rating, Crabgrass ([10]; POSTEMERGENCE, Rate 50 g/ha): 3
Plant response rating, Crabgrass ([10]; PREEMERGENCE, Rate 10 g/ha): 0
Plant response rating, Crabgrass ([10]; PREEMERGENCE, Rate 50 g/ha): 0
Plant response rating, Giant foxtail ([11]; POSTEMERGENCE, Rate 10 g/ha): 3
Plant response rating, Giant foxtail ([11]; POSTEMERGENCE, Rate 50 g/ha): 3
Plant response rating, Giant foxtail ([11]; PREEMERGENCE, Rate 10 g/ha): 0
Plant response rating, Giant foxtail ([11]; PREEMERGENCE, Rate 50 g/ha): 1
Plant response rating, Cocklebur ([12]; POSTEMERGENCE, Rate 10 g/ha): 8
Plant response rating, Cocklebur ([12]; POSTEMERGENCE, Rate 50 g/ha): 9
Plant response rating, Cocklebur ([12]; PREEMERGENCE, Rate 10 g/ha): 0
Plant response rating, Cocklebur ([12]; PREEMERGENCE, Rate 50 g/ha): 0
Plant response rating, Wild oat ([13]; 250 g/ha, 0 to 100 scale): 85
Plant response rating (0 to 100), Wild oat ([13]; Rate 4 g/ha): 0
Plant response rating (0 to 100), Wild oat ([13]; Rate 16 g/ha): 0
Plant response rating, Wild oat ([14]; POSTEMERGENCE, Rate 10 g/ha): 4
Plant response rating, Wild oat ([14]; POSTEMERGENCE, Rate 50 g/ha): 6
Plant response rating, Wild oat ([14]; PREEMERGENCE, Rate 50 g/ha): 3
Plant response rating, Nutsedge ([15]; POSTEMERGENCE, Rate 10 g/ha): 1
Plant response rating, Nutsedge ([15]; POSTEMERGENCE, Rate 50 g/ha): 6
Plant response rating, Nutsedge ([15]; PREEMERGENCE, Rate 50 g/ha): 0

Reference: US6358885B1, “Substituted phenylheterocyclic herbicides” (Mississippi State University, priority 1992, dated 2002)
